# Measured values as given in publication PMC5218480 (PLoS ONE, 2017).
# Tested on: MV-4-11 cells
# Experiment: Gene expression microarray analysis (Affymetrix PrimeView) and GSEA
# Assay type: cell-based, human
# Set-up: RFU PODN (11730768_x_at) / Fold change /veh PODN (11730768_x_at) / RFU LINC00158 (11744669_a_at) / Fold change /veh LINC00158 (11744669_a_at) / RFU DUSP10 (11751237_a_at) / Fold change /veh DUSP10 (11751237_a_at) / RFU ID3 (11757404_x_at) / Fold change /veh ID3 (11757404_x_at) / RFU PLEKHG5 (11737974_s_at) / Fold change /veh PLEKHG5 (11737974_s_at) / RFU LRRC4B (11730491_at) / Fold change /veh LRRC4B (11730491_at) / RFU GIMAP4 (11747438_a_at) / Fold change /veh GIMAP4 (11747438_a_at) / RFU KRT8 (11758183_x_at) / Fold change /veh KRT8 (11758183_x_at) / RFU CNN1 (11734310_a_at) / Fold change /veh CNN1 (11734310_a_at) / RFU VPS37D (11726825_at) / Fold change /veh VPS37D (11726825_at) / RFU C10orf10 (11716522_x_at) / Fold change /veh C10orf10 (11716522_x_at) / RFU KIR2DL2 /// KIR2DL4 /// KIR2DL5A /// KIR2DL5B /// KIR2DS1 /// KIR2DS2 /// KIR2DS3 /// KIR2DS4 /// KIR3DL3 /// KIR3DL3 /// KIR3DS1 (11738374_at) / Fold change /veh KIR2DL2 /// KIR2DL4 /// KIR2DL5A /// KIR2DL5B /// KIR2DS1 /// KIR2DS2 /// KIR2DS3 /// KIR2DS4 /// KIR3DL3 /// KIR3DL3 /// KIR3DS1 (11738374_at) / RFU C1QL1 (11718748_at) / Fold change /veh C1QL1 (11718748_at) / RFU TMPRSS4 (11747572_a_at) / Fold change /veh TMPRSS4 (11747572_a_at) / RFU HAMP (11756126_x_at) / Fold change /veh HAMP (11756126_x_at) / RFU RNFT2 (11725882_a_at) / Fold change /veh RNFT2 (11725882_a_at) / RFU NR4A2 (11747474_a_at) / Fold change /veh NR4A2 (11747474_a_at) / RFU ABCC12 (11746883_a_at) / Fold change /veh ABCC12 (11746883_a_at) / RFU TMEM136 (11760407_x_at) / Fold change /veh TMEM136 (11760407_x_at) / RFU CLDN22 /// WWC2 (11732394_at) / Fold change /veh CLDN22 /// WWC2 (11732394_at) / RFU HLA-DPB1 (11760878_x_at) / Fold change /veh HLA-DPB1 (11760878_x_at) / RFU SPINT1 (11716480_a_at) / Fold change /veh SPINT1 (11716480_a_at) / RFU GAP43 (11754022_s_at) / Fold change /veh GAP43 (11754022_s_at) / RFU A4GNT (11735810_at) / Fold change /veh A4GNT (11735810_at) / RFU PRB3 (11715151_x_at) / Fold change /veh PRB3 (11715151_x_at) / RFU TUBB4B (11761932_at) / Fold change /veh TUBB4B (11761932_at) / RFU CAPN14 (11732068_a_at) / Fold change /veh CAPN14 (11732068_a_at) / RFU TMCC2 (11721928_a_at) / Fold change /veh TMCC2 (11721928_a_at) / RFU IRGQ (11745062_a_at) / Fold change /veh IRGQ (11745062_a_at) / RFU FAM174B (11720279_a_at) / Fold change /veh FAM174B (11720279_a_at) / RFU TMPRSS4 (11748680_a_at) / Fold change /veh TMPRSS4 (11748680_a_at) / RFU FAM212B (11763350_a_at) / Fold change /veh FAM212B (11763350_a_at) / RFU PLEKHG5 (11743358_a_at) / Fold change /veh PLEKHG5 (11743358_a_at) / RFU ZSCAN30 (11745921_a_at) / Fold change /veh ZSCAN30 (11745921_a_at) / RFU CMKLR1 (11741424_a_at) / Fold change /veh CMKLR1 (11741424_a_at) / RFU LOC101060620 /// MAPK8IP1 (11723275_at) / Fold change /veh LOC101060620 /// MAPK8IP1 (11723275_at) / RFU SPTSSB (11747773_x_at) / Fold change /veh SPTSSB (11747773_x_at) / RFU PRSS12 (11739890_at) / Fold change /veh PRSS12 (11739890_at) / RFU BIN1 (11741810_x_at) / Fold change /veh BIN1 (11741810_x_at) / RFU WNT11 (11732464_a_at) / Fold change /veh WNT11 (11732464_a_at) / RFU C10orf10 (11716521_a_at) / Fold change /veh C10orf10 (11716521_a_at) / RFU C5orf56 (11738089_at) / Fold change /veh C5orf56 (11738089_at) / RFU CYB561 (11721691_x_at) / Fold change /veh CYB561 (11721691_x_at) / RFU ANKRD19P (11752326_a_at) / Fold change /veh ANKRD19P (11752326_a_at) / RFU OR2T12 /// OR2T33 /// OR2T8 (11738714_s_at) / Fold change /veh OR2T12 /// OR2T33 /// OR2T8 (11738714_s_at) / RFU VCAN (11748164_a_at) / Fold change /veh VCAN (11748164_a_at) / RFU JSRP1 (11732532_at) / Fold change /veh JSRP1 (11732532_at) / RFU KRTAP10-11 (11738290_x_at) / Fold change /veh KRTAP10-11 (11738290_x_at) / RFU MYO3A (11730013_a_at) / Fold change /veh MYO3A (11730013_a_at) / RFU EBF3 (11725865_a_at) / Fold change /veh EBF3 (11725865_a_at) / RFU CAMK2N1 (11719241_x_at) / Fold change /veh CAMK2N1 (11719241_x_at) / RFU C5orf56 (11738088_a_at) / Fold change /veh C5orf56 (11738088_a_at) / RFU OLFML3 (11715873_a_at) / Fold change /veh OLFML3 (11715873_a_at) / RFU LOC100653217 /// NTM (11731650_a_at) / Fold change /veh LOC100653217 /// NTM (11731650_a_at) / RFU MAPK11 (11762145_a_at) / Fold change /veh MAPK11 (11762145_a_at) / RFU FIZ1 (11724087_x_at) / Fold change /veh FIZ1 (11724087_x_at) / RFU OASL (11726364_x_at) / Fold change /veh OASL (11726364_x_at) / RFU SOX15 (11748057_x_at) / Fold change /veh SOX15 (11748057_x_at) / RFU CD79A (11719716_a_at) / Fold change /veh CD79A (11719716_a_at) / RFU HIST1H1D (11736915_at) / Fold change /veh HIST1H1D (11736915_at) / RFU CASKIN2 (11723855_a_at) / Fold change /veh CASKIN2 (11723855_a_at) / RFU LOC730098 (11760151_x_at) / Fold change /veh LOC730098 (11760151_x_at) / RFU OR4N2 (11742367_at) / Fold change /veh OR4N2 (11742367_at) / RFU PRRT2 (11749266_a_at) / Fold change /veh PRRT2 (11749266_a_at) / RFU SNX32 (11753110_a_at) / Fold change /veh SNX32 (11753110_a_at) / RFU CDHR5 (11726645_a_at) / Fold change /veh CDHR5 (11726645_a_at) / RFU RCAN1 (11760418_a_at) / Fold change /veh RCAN1 (11760418_a_at) / RFU FAM167A (11723789_a_at) / Fold change /veh FAM167A (11723789_a_at) / RFU FAM26E (11764081_at) / Fold change /veh FAM26E (11764081_at) / RFU ISYNA1 (11749810_s_at) / Fold change /veh ISYNA1 (11749810_s_at) / RFU ACY1 (11761880_at) / Fold change /veh ACY1 (11761880_at) / RFU 11764098_at / Fold change /veh 11764098_at / RFU SAMD14 (11745864_x_at) / Fold change /veh SAMD14 (11745864_x_at) / RFU NPB (11741838_a_at) / Fold change /veh NPB (11741838_a_at) / RFU TMPRSS6 (11731388_a_at) / Fold change /veh TMPRSS6 (11731388_a_at) / RFU KRTAP10-2 (11738614_at) / Fold change /veh KRTAP10-2 (11738614_at) / RFU ARHGAP8 /// PRR5-ARHGAP8 (11727945_x_at) / Fold change /veh ARHGAP8 /// PRR5-ARHGAP8 (11727945_x_at) / RFU KRTAP5-7 /// NADSYN1 (11734609_at) / Fold change /veh KRTAP5-7 /// NADSYN1 (11734609_at) / RFU RASL12 (11751679_a_at) / Fold change /veh RASL12 (11751679_a_at) / RFU CDKN2B (11736163_a_at) / Fold change /veh CDKN2B (11736163_a_at) / RFU PRF1 (11729649_at) / Fold change /veh PRF1 (11729649_at) / RFU, ZNF638 /// ZNF638-IT1 / Fold change vs veh, ZNF638 /// ZNF638-IT1 / RFU, PANK3 / Fold change vs veh, PANK3 / RFU, SH3YL1 / Fold change vs veh, SH3YL1 / RFU, ZEB2 / Fold change vs veh, ZEB2 / RFU, NRIP1 / Fold change vs veh, NRIP1 / RFU, PTTG1IP / Fold change vs veh, PTTG1IP / RFU, CAPN2 / Fold change vs veh, CAPN2 / RFU, MED14 / Fold change vs veh, MED14 / RFU, SNORA58 / Fold change vs veh, SNORA58 / RFU, C1orf63 / Fold change vs veh, C1orf63 / RFU, LRRFIP1 / Fold change vs veh, LRRFIP1 / RFU, NDUFAF7 / Fold change vs veh, NDUFAF7 / RFU, SLC12A2 / Fold change vs veh, SLC12A2 / RFU, IBTK / Fold change vs veh, IBTK / RFU, ESF1 / Fold change vs veh, ESF1 / Fold change vs veh, TMEM50B / RFU, TAOK1 / Fold change vs veh, TAOK1 / RFU, ACBD3 / Fold change vs veh, ACBD3 / RFU, TMA16 / Fold change vs veh, TMA16 / RFU, RWDD3 / Fold change vs veh, RWDD3 / RFU, BCAT1 / Fold change vs veh, BCAT1 / RFU, EDEM3 / Fold change vs veh, EDEM3 / RFU, TMEM33 / Fold change vs veh, TMEM33 / RFU, WDR75 / Fold change vs veh, WDR75 / RFU, AHCTF1 / Fold change vs veh, AHCTF1 / RFU, TFRC / Fold change vs veh, TFRC / RFU, ZDHHC17 / Fold change vs veh, ZDHHC17 / RFU, NOM1 / Fold change vs veh, NOM1 / RFU, ARL8B / Fold change vs veh, ARL8B / RFU, ZBTB11 / Fold change vs veh, ZBTB11 / RFU, TAMM41 / Fold change vs veh, TAMM41 / RFU, KIAA1704 /// LOC100996395 / Fold change vs veh, KIAA1704 /// LOC100996395 / RFU, ING1 / Fold change vs veh, ING1 / RFU, TRMT61B / Fold change vs veh, TRMT61B / RFU, FUBP3 / Fold change vs veh, FUBP3 / RFU, TP53 / Fold change vs veh, TP53 / RFU, TNKS2 / Fold change vs veh, TNKS2 / RFU, ZFP14 / Fold change vs veh, ZFP14 / RFU, ACTR2 / Fold change vs veh, ACTR2 / RFU, PPP3R1 / Fold change vs veh, PPP3R1 / RFU, PIK3R1 / Fold change vs veh, PIK3R1 / RFU, HNRNPA1 / Fold change vs veh, HNRNPA1 / RFU, RNF170 / Fold change vs veh, RNF170 / RFU, ZNF28 / Fold change vs veh, ZNF28 / RFU, RNGTT / Fold change vs veh, RNGTT / RFU, OGT / Fold change vs veh, OGT / RFU, BRD1 / Fold change vs veh, BRD1 / RFU, MARS / Fold change vs veh, MARS / RFU, ZNF655 / Fold change vs veh, ZNF655 / RFU, FAHD1 / Fold change vs veh, FAHD1 / RFU, BDP1 / Fold change vs veh, BDP1 / RFU, LRRCC1 / Fold change vs veh, LRRCC1 / RFU, ARID1A / Fold change vs veh, ARID1A / RFU, ZNF146 / Fold change vs veh, ZNF146 / RFU, ZNF330 / Fold change vs veh, ZNF330 / RFU, GPN3 / Fold change vs veh, GPN3 / RFU, C9orf123 / Fold change vs veh, C9orf123 / RFU, N4BP2L2 / Fold change vs veh, N4BP2L2 / RFU, ARFIP1 / Fold change vs veh, ARFIP1 / RFU, FAM179B / Fold change vs veh, FAM179B / RFU, BCL10 / Fold change vs veh, BCL10 / RFU, UHRF1BP1L / Fold change vs veh, UHRF1BP1L / RFU, BET1 / Fold change vs veh, BET1 / RFU, CNOT2 / Fold change vs veh, CNOT2 / RFU, ZNF268 / Fold change vs veh, ZNF268 / Fold change vs veh, ZNF507 / RFU, DGCR2 / Fold change vs veh, DGCR2 / RFU, WDSUB1 / Fold change vs veh, WDSUB1 / Fold change vs veh, HSP90B1 /// MIR3652 / RFU, ADSS / Fold change vs veh, ADSS / RFU, GK / Fold change vs veh, GK / RFU, ZNF148 / Fold change vs veh, ZNF148 / RFU, TAF9 / Fold change vs veh, TAF9 / RFU, SLC1A5 / Fold change vs veh, SLC1A5 / RFU, SLMO2 / Fold change vs veh, SLMO2 / RFU, ABCC4 / Fold change vs veh, ABCC4 / RFU, LOC101060439 /// RAP1B / Fold change vs veh, LOC101060439 /// RAP1B / RFU, RFX7 / Fold change vs veh, RFX7 / RFU, GTPBP10 / Fold change vs veh, GTPBP10 / RFU, CNEP1R1 / Fold change vs veh, CNEP1R1 / RFU, BIVM-ERCC5 /// ERCC5 / Fold change vs veh, BIVM-ERCC5 /// ERCC5 / RFU, ILF3 / Fold change vs veh, ILF3 / RFU 11762660_at / Fold change /veh 11762660_at / RFU VCAN (11757783_s_at) / Fold change /veh VCAN (11757783_s_at) / RFU DDX43 (11728927_at) / Fold change /veh DDX43 (11728927_at) / RFU KRT8 (11758188_x_at) / Fold change /veh KRT8 (11758188_x_at) / RFU NKD1 (11759106_at) / Fold change /veh NKD1 (11759106_at) / RFU SRD5A1 (11742802_a_at) / Fold change /veh SRD5A1 (11742802_a_at) / RFU TPSAB1 /// TPSB2 (11721975_s_at) / Fold change /veh TPSAB1 /// TPSB2 (11721975_s_at) / RFU GSTM3 (11746129_a_at) / Fold change /veh GSTM3 (11746129_a_at) / RFU IL23R (11737362_x_at) / Fold change /veh IL23R (11737362_x_at) / RFU TMEM51 (11727254_a_at) / Fold change /veh TMEM51 (11727254_a_at) / RFU PIWIL2 (11732686_x_at) / Fold change /veh PIWIL2 (11732686_x_at) / RFU ORM1 (11744905_x_at) / Fold change /veh ORM1 (11744905_x_at) / RFU CCDC152 (11743942_at) / Fold change /veh CCDC152 (11743942_at) / RFU ECM1 (11717891_a_at) / Fold change /veh ECM1 (11717891_a_at) / RFU IL23R (11748794_a_at) / Fold change /veh IL23R (11748794_a_at) / RFU TNFAIP8L3 (11732012_x_at) / Fold change /veh TNFAIP8L3 (11732012_x_at) / RFU MBOAT4 (11741988_at) / Fold change /veh MBOAT4 (11741988_at) / RFU 11764193_at / Fold change /veh 11764193_at / RFU TMEM53 (11763286_at) / Fold change /veh TMEM53 (11763286_at) / RFU MAGEB2 (11727129_at) / Fold change /veh MAGEB2 (11727129_at) / RFU TMEM200A (11744735_a_at) / Fold change /veh TMEM200A (11744735_a_at) / RFU CCDC152 (11751479_a_at) / Fold change /veh CCDC152 (11751479_a_at) / RFU FAM211A (11726209_a_at) / Fold change /veh FAM211A (11726209_a_at) / RFU RGS16 (11746705_a_at) / Fold change /veh RGS16 (11746705_a_at) / RFU VCAN (11755009_s_at) / Fold change /veh VCAN (11755009_s_at) / RFU RHOB (11743442_s_at) / Fold change /veh RHOB (11743442_s_at) / RFU RGS16 (11720943_a_at) / Fold change /veh RGS16 (11720943_a_at) / RFU RGS16 (11720944_at) / Fold change /veh RGS16 (11720944_at) / RFU, VPS4B / Fold change vs veh, VPS4B / RFU, CREB1 / Fold change vs veh, CREB1 / RFU, DNAJC13 / Fold change vs veh, DNAJC13 / RFU, GNAQ / Fold change vs veh, GNAQ / RFU, CDK5R1 / Fold change vs veh, CDK5R1 / RFU, ZRANB3 / Fold change vs veh, ZRANB3 / RFU, CUL4A / Fold change vs veh, CUL4A / RFU, CCNY / Fold change vs veh, CCNY / RFU, UFL1 / Fold change vs veh, UFL1 / RFU, COG3 / Fold change vs veh, COG3 / RFU, DIAPH2 / Fold change vs veh, DIAPH2 / RFU, SKA2 / Fold change vs veh, SKA2 / RFU, AFF3 / Fold change vs veh, AFF3 / RFU, LMF1 / Fold change vs veh, LMF1 / RFU, IPO11 / Fold change vs veh, IPO11 / RFU, DFFB / Fold change vs veh, DFFB / RFU, FOXP1 / Fold change vs veh, FOXP1 / RFU, CARD8 / Fold change vs veh, CARD8 / RFU, STRN3 / Fold change vs veh, STRN3 / RFU, ADK / Fold change vs veh, ADK / RFU, RASSF2 / Fold change vs veh, RASSF2 / RFU, WIPF1 / Fold change vs veh, WIPF1 / RFU, LARP1B / Fold change vs veh, LARP1B / RFU, RASA1 / Fold change vs veh, RASA1 / RFU, RB1 / Fold change vs veh, RB1 / RFU, PPFIA1 / Fold change vs veh, PPFIA1 / RFU, MAT2A / Fold change vs veh, MAT2A / RFU, CCT5 / Fold change vs veh, CCT5 / RFU, WDR92 / Fold change vs veh, WDR92 / RFU, CUX1 / Fold change vs veh, CUX1 / RFU, TTC7A / Fold change vs veh, TTC7A / RFU, TMEM135 / Fold change vs veh, TMEM135 / RFU, DEPTOR / Fold change vs veh, DEPTOR / RFU, CPM / Fold change vs veh, CPM / RFU, DNAJB6 / Fold change vs veh, DNAJB6 / RFU, CACNA2D3 / Fold change vs veh, CACNA2D3 / RFU, DTX4 / Fold change vs veh, DTX4 / RFU, TFCP2 / Fold change vs veh, TFCP2 / RFU, GMCL1 /// GMCL1P1 / Fold change vs veh, GMCL1 /// GMCL1P1 / RFU, AEBP2 / Fold change vs veh, AEBP2 / RFU, SNHG1 /// SNORD22 /// SNORD25 /// SNORD26 /// SNORD27 /// SNORD28 /// SNORD29 /// SNORD31 / Fold change vs veh, SNHG1 /// SNORD22 /// SNORD25 /// SNORD26 /// SNORD27 /// SNORD28 /// SNORD29 /// SNORD31 / Fold change (Aza/veh), C12orf56 (ProbeSet 11735607_a_at) / Fold change (ACY-1035/veh), C12orf56 (ProbeSet 11735607_a_at) / Fold change (Aza/veh), FGFR1OP (ProbeSet 11751329_s_at) / Fold change (ACY-1035/veh), FGFR1OP (ProbeSet 11751329_s_at) / Fold change (Aza/veh), VPS36 (ProbeSet 11739960_a_at) / Fold change (ACY-1035/veh), VPS36 (ProbeSet 11739960_a_at) / RFU SYPL1 (11715823_x_at) / Fold change /veh SYPL1 (11715823_x_at) / RFU IGFBP7 (11715501_s_at) / Fold change /veh IGFBP7 (11715501_s_at) / RFU REEP3 (11722064_at) / Fold change /veh REEP3 (11722064_at) / RFU IGLL1 (11728026_x_at) / Fold change /veh IGLL1 (11728026_x_at): dose or concentration left out as unconfirmed
# Details: MV-4-11 cells, 48 hours
smiles,measurement,value
Nc1ccc(-c2cccs2)cc1NC(=O)c1ccc2c(c1)cc(C1CC1)n2CCN1CCOCC1 [ACY-1035],RFU CAMK2N1 (11719241_x_at),51.25 RFU
